According to PubChem BioAssay (NCI):
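How tested: cells in 96-well plates exposed to compound for 48 hours at five concentrations. TGI marks complete inhibition of growth.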

Experiments:
Experiment in all cases: NCI tumour cell line growth inhibition, 48 h
[1] = tested on: 786-0 renal
[2] = tested on: A498 renal
[3] = tested on: A549 NSCLC
[4] = tested on: ACHN renal
[5] = tested on: BT-549 breast
[6] = tested on: CAKI-1 renal
[7] = tested on: COLO 205 colon
[8] = tested on: DLD-1 colon
[9] = tested on: DMS 114 small cell lung
[10] = tested on: DMS 273 small cell lung
[11] = tested on: DU-145 prostate
[12] = tested on: EKVX NSCLC
[13] = tested on: HCC-2998 colon
[14] = tested on: HCT-116 colon
[15] = tested on: HCT-15 colon
[16] = tested on: HL-60(TB) leukemia
[17] = tested on: HOP-18 NSCLC
[18] = tested on: HOP-62 NSCLC
[19] = tested on: HOP-92 NSCLC
[20] = tested on: HS 578T breast
[21] = tested on: HT29 colon
[22] = tested on: IGROV1 ovarian
[23] = tested on: K-562 leukemia
[24] = tested on: KM12 colon
[25] = tested on: KM20L2 colon
[26] = tested on: LOX IMVI melanoma
[27] = tested on: LXFL 529 NSCLC
[28] = tested on: M14 melanoma
[29] = tested on: M19-MEL melanoma
[30] = tested on: MALME-3M melanoma
[31] = tested on: MCF7 breast
[32] = tested on: MDA-MB-231 breast
[33] = tested on: MDA-MB-435
[34] = tested on: MDA-N
[35] = tested on: MOLT-4 leukemia
[36] = tested on: NCI-H226 lung
[37] = tested on: NCI-H23 lung
[38] = tested on: NCI-H460 lung
[39] = tested on: NCI-H522 lung
[40] = tested on: NCI/ADR-RES ovarian
[41] = tested on: OVCAR-3 ovarian
[42] = tested on: OVCAR-4 ovarian
[43] = tested on: OVCAR-5 ovarian
[44] = tested on: OVCAR-8 ovarian
[45] = tested on: PC-3 prostate
[46] = tested on: RPMI-8226 leukemia
[47] = tested on: RXF 393 renal
[48] = tested on: RXF-631 renal
[49] = tested on: SF-268 CNS
[50] = tested on: SF-295 CNS
[51] = tested on: SF-539 CNS
[52] = tested on: SK-MEL-2 melanoma
[53] = tested on: SK-MEL-28 melanoma
[54] = tested on: SK-MEL-5 melanoma
[55] = tested on: SK-OV-3 ovarian
[56] = tested on: SN12C renal
[57] = tested on: SNB-19 CNS
[58] = tested on: SNB-75 CNS
[59] = tested on: SNB-78 CNS
[60] = tested on: SR leukemia
[61] = tested on: SW-620 colon
[62] = tested on: T-47D breast
[63] = tested on: TK-10 renal
[64] = tested on: U251 CNS
[65] = tested on: UACC-257 melanoma
[66] = tested on: UACC-62 melanoma
[67] = tested on: UO-31 renal
[68] = tested on: XF 498 CNS
[69] = tested on: CCRF-CEM leukemia

Q: How did the TGI [1] turn out when `C=C1C(=O)OC2/C=C(CO)/C=C\C3OC3(C)CC(OC(=O)/C(C)=C/COC(C)=O)C12` (stereo not drawn) was run?
A: 4.36 µM

Q: What about the TGI [2] of the same compound?
A: 20.6 µM

Q: And the TGI [3]?
A: 28.5 µM

Q: What about the TGI [4] of the same compound?
A: 9.16 µM

Q: What about the TGI [5] of the same compound?
A: 3.25 µM

Q: And the TGI [6]?
A: 10.9 µM

Q: What about the TGI [7] of the same compound?
A: 2.99 µM

Q: What about the TGI [8] of the same compound?
A: 2.49 µM

Q: And the TGI [9]?
A: 10.9 µM

Q: And the TGI [10]?
A: 4.3 µM

Q: What about the TGI [11] of the same compound?
A: 30.2 µM

Q: What about the TGI [12] of the same compound?
A: 12.8 µM

Q: What about the TGI [13] of the same compound?
A: 28.8 µM

Q: And the TGI [14]?
A: 2.83 µM

Q: And the TGI [15]?
A: 4.27 µM

Q: And the TGI [16]?
A: 1.48 µM

Q: What about the TGI [17] of the same compound?
A: 22.1 µM

Q: What about the TGI [18] of the same compound?
A: 35.5 µM

Q: What about the TGI [19] of the same compound?
A: 5.94 µM

Q: And the TGI [20]?
A: 11.8 µM

Q: What about the TGI [21] of the same compound?
A: 7.39 µM

Q: What about the TGI [22] of the same compound?
A: 23.9 µM

Q: And the TGI [23]?
A: > 20.7 µM

Q: What about the TGI [24] of the same compound?
A: 14.2 µM

Q: And the TGI [25]?
A: 17 µM

Q: What about the TGI [26] of the same compound?
A: 3.05 µM

Q: And the TGI [27]?
A: 4.27 µM

Q: And the TGI [28]?
A: 5.64 µM

Q: What about the TGI [29] of the same compound?
A: 4.15 µM

Q: And the TGI [30]?
A: 3.38 µM

Q: And the TGI [31]?
A: 16.4 µM

Q: And the TGI [32]?
A: 9.13 µM

Q: What about the TGI [33] of the same compound?
A: 4.32 µM

Q: And the TGI [34]?
A: 4.13 µM

Q: What about the TGI [35] of the same compound?
A: 5.49 µM

Q: What about the TGI [36] of the same compound?
A: 27.7 µM

Q: And the TGI [37]?
A: 8.53 µM

Q: What about the TGI [38] of the same compound?
A: 15.3 µM

Q: And the TGI [39]?
A: 1.81 µM

Q: What about the TGI [40] of the same compound?
A: 15.8 µM

Q: And the TGI [41]?
A: 6.68 µM

Q: And the TGI [42]?
A: 16.4 µM

Q: What about the TGI [43] of the same compound?
A: 26.9 µM

Q: And the TGI [44]?
A: 7 µM

Q: What about the TGI [45] of the same compound?
A: 21.6 µM

Q: What about the TGI [46] of the same compound?
A: 4.33 µM

Q: And the TGI [47]?
A: 4.12 µM

Q: And the TGI [48]?
A: 12.1 µM

Q: What about the TGI [49] of the same compound?
A: 15.4 µM

Q: What about the TGI [50] of the same compound?
A: 28.3 µM

Q: What about the TGI [51] of the same compound?
A: 4.39 µM

Q: And the TGI [52]?
A: 7.88 µM

Q: What about the TGI [53] of the same compound?
A: 3.26 µM

Q: And the TGI [54]?
A: 15.9 µM

Q: What about the TGI [55] of the same compound?
A: 31.7 µM

Q: And the TGI [56]?
A: 5.63 µM

Q: What about the TGI [57] of the same compound?
A: 25.1 µM

Q: What about the TGI [58] of the same compound?
A: 20.7 µM

Q: What about the TGI [59] of the same compound?
A: 23.4 µM

Q: And the TGI [60]?
A: 13.7 µM

Q: And the TGI [61]?
A: 3.24 µM

Q: And the TGI [62]?
A: 7.53 µM

Q: What about the TGI [63] of the same compound?
A: 14 µM

Q: What about the TGI [64] of the same compound?
A: 14.5 µM

Q: And the TGI [65]?
A: 6.59 µM

Q: And the TGI [66]?
A: 4.96 µM

Q: And the TGI [67]?
A: 17.9 µM

Q: And the TGI [68]?
A: 6.47 µM

Q: For `COc1c(O)ccc(/C=N/NC(=S)NCOCCOC(C)=O)c1OC`, which TGI [1] is on record?
A: > 100 µM

Q: And the TGI [2]?
A: > 100 µM

Q: What about the TGI [3] of the same compound?
A: > 100 µM

Q: What about the TGI [4] of the same compound?
A: > 100 µM

Q: What about the TGI [69] of the same compound?
A: > 100 µM

Q: What about the TGI [7] of the same compound?
A: > 100 µM

Q: And the TGI [8]?
A: > 100 µM

Q: And the TGI [9]?
A: > 100 µM

Q: What about the TGI [10] of the same compound?
A: > 100 µM

Q: And the TGI [12]?
A: > 100 µM

Q: And the TGI [13]?
A: > 100 µM

Q: And the TGI [14]?
A: > 100 µM

Q: What about the TGI [15] of the same compound?
A: > 100 µM

Q: And the TGI [16]?
A: > 100 µM

Q: And the TGI [17]?
A: > 100 µM

Q: What about the TGI [18] of the same compound?
A: > 100 µM

Q: What about the TGI [19] of the same compound?
A: > 100 µM

Q: What about the TGI [21] of the same compound?
A: > 100 µM

Q: And the TGI [22]?
A: > 100 µM

Q: And the TGI [23]?
A: > 100 µM

Q: And the TGI [24]?
A: > 100 µM

Q: And the TGI [25]?
A: > 100 µM

Q: What about the TGI [26] of the same compound?
A: > 100 µM

Q: What about the TGI [27] of the same compound?
A: > 100 µM

Q: And the TGI [28]?
A: > 100 µM

Q: What about the TGI [29] of the same compound?
A: > 100 µM

Q: And the TGI [30]?
A: > 100 µM

Q: And the TGI [36]?
A: > 100 µM

Q: What about the TGI [37] of the same compound?
A: > 100 µM

Q: What about the TGI [38] of the same compound?
A: > 100 µM

Q: And the TGI [39]?
A: > 100 µM

Q: What about the TGI [41] of the same compound?
A: > 100 µM

Q: And the TGI [42]?
A: > 100 µM

Q: And the TGI [43]?
A: > 100 µM

Q: What about the TGI [44] of the same compound?
A: > 100 µM

Q: What about the TGI [47] of the same compound?
A: > 100 µM

Q: What about the TGI [48] of the same compound?
A: > 100 µM

Q: And the TGI [49]?
A: > 100 µM

Q: What about the TGI [50] of the same compound?
A: > 100 µM

Q: What about the TGI [51] of the same compound?
A: > 100 µM

Q: And the TGI [52]?
A: > 100 µM

Q: What about the TGI [53] of the same compound?
A: > 100 µM

Q: What about the TGI [54] of the same compound?
A: > 100 µM

Q: What about the TGI [55] of the same compound?
A: > 100 µM

Q: And the TGI [56]?
A: > 100 µM

Q: What about the TGI [57] of the same compound?
A: > 100 µM

Q: What about the TGI [58] of the same compound?
A: > 100 µM

Q: And the TGI [59]?
A: > 100 µM

Q: And the TGI [61]?
A: > 100 µM

Q: And the TGI [63]?
A: > 100 µM

Q: What about the TGI [64] of the same compound?
A: > 100 µM

Q: And the TGI [65]?
A: > 100 µM

Q: And the TGI [66]?
A: > 100 µM

Q: And the TGI [67]?
A: > 100 µM

Q: And the TGI [68]?
A: > 100 µM
